We go through 1 compound from patent publication US20250152605A1, “METHOD AND DRUG FOR TREATING NEURONAL CEROID LIPOFUSCINOSIS” (priority 2021, published 2025).

In test [1] the test system is KEAP1-knockdown CLN3^Δex7/8 human neurons. As to the kind of experiment: Lysotracker staining of KEAP1-knockdown CLN3^Δex7/8 human neurons. Format: cell-based. Particulars: added to KEAP1-knockdown CLN3^Δex7/8 human neurons. On the procedure: shRNA knockdown experiments of genes such as CLN3 and KEAP1 were conducted in induced neural stem cells and neurons, with specific steps as follows: the neural stem cells were planted into a desired cell culture plate to a cell density of about 50% or the neural stem cells were differentiated into human neurons in the cell culture plate according to experimental requirements; the shRNA lentiviral plasmids of CLN3 and KEAP1 genes and the control lentiviral plasmid expressing non-target sequences were selected from the MISSIOH human shRNA library of Sigma Aldrich, and the sequences were shown in Table 6; Lentiviruses was packaged in 10 cm cell culture plates and virus-containing supernatant was collected by filtration according to the method described above; the supernatant and lentivirus concentrate (40% PEG-8000 and 1.2M sodium chloride dissolved in dPBS solution, pH˜ 7.0) were mixed in a volume ratio of 1:3, and incubated overnight at 4° C. with slow rotation; centrifugation at 13000 g for 30 minutes at 4° C., and the supernatant was discarded, and the pellet was resuspended in 1 mL of fresh cell culture medium and added to the target cells; after 8 hours of infection, the virus was aspirated and fresh cell culture medium was added; 48 hours after infection, 1.5 μg/mL puromycin was added for selection for 72 hours, and the surviving cells were used for subsequent experiments. […]

Test [2] deals with CLN3^Δex7/8 neurons. As to the kind of experiment: Mitochondrial autophagy level (mtDNA/nDNA after CCCP and Baf-A1). It is filed as cell-based, human. Particulars: CCCP-induced mitochondrial damage. The procedure:
The medium in the cell culture plate was aspirated and the cells were digested after washing once with dPBS. After stopping the digestion with cell medium, the supernatant was removed by centrifugation and the cells were resuspended with 200 μL dPBS. DNeasy®) Blood & Tissue Kit was used to extract DNA from cells. Then, referring to the qRT-PCR system and reaction procedure in Tables 2 and 3, the qRT-PCR reaction was performed using the extracted DNA instead of the cDNA. Data analysis was performed in Prism 7 software using the 2^ΔΔCt process with genomic gene b2M as internal reference for relative quantification of the number of mitochondrial sequences MinArc. Primers for determining intracellular mitochondria number were as follows:
Damaged mitochondria within a cell can be eliminated through an autophagic process named mitochondrial autophagy. Functional defects in autophagy affect the elimination of damaged mitochondria, which in turn disrupts mitochondrial homeostasis in neurons. After inducing mitochondrial damage in wild-type and CLN3^Δex7/8 neurons using the mitochondrial uncoupler CCCP, and then inhibiting the elimination of damaged mitochondria by Baf-A1, the increases of intracellular mitochondrial number (mtDNA/nDNA) after Baf-A1 treatment can represent the intracellular mitochondrial autophagy level.

Test [3] has as its system NRF2 downstream genes. As to the kind of experiment: qRT-PCR of NRF2 downstream genes. It is filed as cell-based. Particulars: CLN3^Δex7/8 human neural stem cells, 6 hours. On the procedure:
The cells in the cell-culture dish were collected, extracted using AxyPrep Total RNA Mini Prep Kit or Qiagen AxyPrep Total RNA Mini Prep Kit, and the extracted RNA concentration is measured using Nanodrop; the extracted mRNA was reverse transcribed into cDNA by Transgen's EasyScript® One-Step gDNA Removal and cDNA Synthesis SuperMix and the primers used for reverse transcription were Oligo dT primers; the completion of reverse transcription followed by qRT-PCR reaction through PerfectStart™ Green qPCR SuperMix to detect the expression of the target gene; the qRT-PCR reaction was performed on the Bio-Rad CFX96 Real-Time PCR system; see Table 2 and Table 3 for the 20 μL qRT-PCR reaction system and reaction procedures; data analysis was performed in Prism 7 software using the 2^−ΔΔCt process with GAPDH as internal reference for relative quantification of the expression of the target gene.
Primers were further designed, verification of qRT-PCR was conducted on the above activated genes in the downstream of NRF2. After treating CLN3^Δex7/8 human neural stem cells with Compound G for 6 hours, the cells were collected and mRNA was extracted for detecting the expression level of the genes.
Background: Quantitative PCR measures a nucleic acid by following its amplification.

The test system of test [4] is CLN3^Δex7/8 human neural stem cells. As to the kind of experiment: Tandem LC3 autophagic flux in human neural stem cells. It is filed as cell-based. The text has this: After lysosomal function defects were detected in CLN3^Δex7/8 neural stem cells and neurons, autophagic flux in the cells was further examined. Equal amounts of lentivirus packaged with tandem LC3 plasmid were used to infect wild-type and CLN3^Δex7/8 cells to label intracellular autophagosomes.
Autophagosomes in neural stem cells were labeled using tandem LC3, and the number of autophagosomes with green fluorescence and those with red fluorescence only were observed by high-intensity laser confocal microscope.

Test [5] has as its system Cln3 KO mice. Briefly: Rotarod test (roller experiment). It is filed as in vivo, mouse. Particulars: 4th day of testing. The procedure:
First, the roller experiment was conducted. Treatment of Compound G was continuously provided to the mice after weaned on day 21. When the wild-type mice, the Cln3 KO mice and the Compound G-treated Cln3 KO mice reached 4-5 months of age, roller training for 3 days was conducted, and test was conducted on the 4th day for the motor ability of the mice on the roller.

For `C/C=C1\C(=O)C[C@H]2[C@@H]3CCC4=CC(=O)CC[C@]4(C)[C@H]3CC[C@]12C` [Compound G, (Z)-guggulsterone], the “Lysotracker average fluorescence intensity” value in test [1] is recorded as “could not further increase”. For the same compound, the “mitochondrial autophagy (increase of mitochondrial number mtDNA/nDNA after Baf-A1)” value in test [2] is listed as “rescue mitochondrial autophagy”. The “expression level of most NRF2 downstream genes” value in test [3] is reported as “significantly increase”. Besides, the “number of red fluorescence single-positive autophagosomes” value in test [4] is “increased the number of red fluorescence single-positive autophagosomes”. Besides, the “falling time from the roller” value in test [5] was “significantly extended”.
